Experimental findings from publication PMC4825926, “FleA Expression in Aspergillus fumigatus Is Recognized by Fucosylated Structures on Mucins and Macrophages to Prevent Lung Infection” (PLoS Pathogens, 2016) are described below.

The target of assay [1] is T1, FleA (AFL, Aspergillus fumigatus lectin) (Aspergillus fumigatus, UniProt Q4WW81).
T1 construct: about 34 kDa; no canonical signal peptide
Kind of assay: competition plate assay: biotinylated FleA binding to immobilised human airway mucin.

The next assay addresses T2, PA-IIL (PAIIL) (Pseudomonas aeruginosa, UniProt Q9HYN5).
T2 construct: gene lecB
Briefly: competition assay: PA-IIL binding to human airway mucin.

The target of assay [2] is T1, FleA (AFL, Aspergillus fumigatus lectin). Briefly: competition plate assay: biotinylated FleA binding to immobilised human airway mucin. The note with it: 10 mM CaCl2, TBS-Tween; 100 mM L-galactose.

Read-outs that look alike come from different tables or passages of the source.

T1 sequence (Q4WW81 whole entry): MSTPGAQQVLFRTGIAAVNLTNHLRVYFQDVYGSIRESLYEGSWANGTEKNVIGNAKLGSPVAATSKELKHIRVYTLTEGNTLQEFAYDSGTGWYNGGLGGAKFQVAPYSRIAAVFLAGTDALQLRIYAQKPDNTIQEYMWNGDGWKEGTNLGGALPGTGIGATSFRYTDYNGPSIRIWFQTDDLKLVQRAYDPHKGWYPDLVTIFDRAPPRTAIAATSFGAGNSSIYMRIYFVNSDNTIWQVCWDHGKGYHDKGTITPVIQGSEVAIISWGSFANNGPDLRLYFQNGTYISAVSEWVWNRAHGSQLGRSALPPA
T2 sequence (Q9HYN5 entry or part of it): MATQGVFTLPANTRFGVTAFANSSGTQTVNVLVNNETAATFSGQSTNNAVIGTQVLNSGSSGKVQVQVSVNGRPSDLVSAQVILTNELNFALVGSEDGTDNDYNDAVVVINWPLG

The IC50 is the midpoint of a concentration-inhibition curve. A low value points to higher potency. Molecule `CCC/C=C/CO[C@H]1O[C@H](CO)[C@H](O)[C@H](O)[C@H]1O` [(2E)-hexenyl α-D-galactopyranoside] registered an IC50 in assay [1] of 15300 µM.

As for `CCC/C=C/CO[C@@H]1O[C@@H](C)[C@@H](O)[C@@H](O)[C@@H]1O` [(2E)-hexenyl α-L-fucopyranoside], the values for the IC50 (at PA-IIL (PAIIL); in assay [1]) were 1.6 µM and 0.012 µM, respectively.

Turning to `CCCCC/C=C/CO[C@@H]1O[C@@H](C)[C@@H](O)[C@@H](O)[C@@H]1O` [(2E)-octenyl α-L-fucopyranoside], the IC50 in assay [1] was 2100 µM.

As for `C[C@@H]1OC(O)[C@@H](O)[C@H](O)[C@@H]1O` (stereo partly drawn) [L-fucose], the IC50 in assay [1] (10 mM CaCl2, TBS-Tween, inhibition of FleA-mucin binding) worked out at 801 µM.

`OC[C@@H]1OC(O)[C@@H](O)[C@H](O)[C@@H]1O` (stereo partly drawn) [L-galactose]: the “inhibition at 100 mM” value in assay [2] is recorded as “No inhibition was observed with galactose (Fig 1A)”.

In assay [1], `C=CCO[C@@H]1O[C@@H](C)[C@@H](O)[C@@H](O)[C@@H]1O` [allyl α-L-fucopyranoside] returned an IC50 of 264 µM.

On to `CCCCCCO[C@@H]1O[C@@H](C)[C@@H](O)[C@@H](O)[C@@H]1O` [hexyl α-L-fucopyranoside], for which, in assay [1], the IC50 stood at 361 µM.

Regarding `CO[C@@H]1O[C@@H](C)[C@@H](O)[C@@H](O)[C@@H]1O` [methyl α-L-fucopyranoside], the IC50 in assay [1] stood at 450 µM.
